Activity, inhibition and IC50 data for one compound are collected here from ChEMBL document CHEMBL4765281, “Development of a novel nitric oxide (NO) production inhibitor with potential therapeutic effect on chronic inflammation” (Eur J Med Chem, 2020).

Structures are written as SMILES. Calls of active or inactive are those of the source. No cut-off for these calls is given here.

The subject of assay [1] is Mus musculus. In words: Antiinflammatory activity in DBA/1 mouse model of collagen-induced arthritis assessed as CD4-positive cell expression in lymph node derived lymphocytes at 10 mg/kg/day, po administered starting from day 30 and measured on day 63 by APC-conjugated anti-mouse CD4 and FITC-conjugated anti-mouse CD8 staining based flow cytometry relative to control. It is filed as functional. The settings on record: time 33 day. In general terms: In flow cytometry, cells or beads pass a laser one at a time.

The test system of assay [2] is Mus musculus. Put plainly: Antiinflammatory activity in DBA/1 mouse model of collagen-induced arthritis assessed as CD4 and CD8- double positive cell expression in spleen lymphocytes at 10 mg/kg/day, po administered starting from day 30 and measured on day 63 by APC-conjugated anti-mouse CD4 and FITC-conjugated anti-mouse CD8 staining based flow cytometry relative to control. The class given is functional. The settings on record: time 33 day.

The subject of assay [3] is RAW264.7. In words: Inhibition of LPS-induced iNOS expression in mouse RAW264.7 cells measured after 24 hrs by Western blot analysis. It is filed as functional, cell-based. Background: In western blotting, separated proteins are transferred to a membrane and probed.
In assay [4] the test system is RAW264.7. Put plainly: Inhibition of LPS-induced nitric oxide production in mouse RAW264.7 cells at 10 uM measured after 24 hrs by Griess reagent based assay relative to control. It is filed as functional. On the technique in general: The Griess reaction detects nitrite, a stable product of nitric oxide.
For assay [5], the system named is Rattus norvegicus. Put plainly: Antiinflammatory activity in Lewis rat model of adjuvant-induced arthritis assessed as improvement in disease pathology at 10 mg/kg/day, po administered starting from day 14 and measured on day 28 by H and E/Safranin O staining based microscopic analysis. It is filed as functional, organism-based. The settings on record: time 14.0 day.

In assay [6] the test system is Mus musculus. In words: Antiinflammatory activity in DBA/1 mouse model of collagen-induced arthritis assessed as reduction in IL-6 mRNA expression in joint tissue at 10 mg/kg/day, po administered starting from day 30 and measured on day 63 by RT-PCR analysis. The class given is functional, organism-based. The following applies: time 33.0 day.
Assay [7] has as its system Mus musculus. Put plainly: Antiinflammatory activity in DBA/1 mouse model of collagen-induced arthritis assessed as reduction in paw redness at 10 mg/kg/day, po administered starting from day 30. The class given is functional, organism-based.
Assay [8] has as its system RAW264.7. Put plainly: Cytotoxicity against mouse RAW264.7 cells assessed as reduction in cell viability measured after 24 hrs by MTT assay. It is filed as cell-based. The following applies: RAW264.7, 24 h.
The test system of assay [9] is Mus musculus. Put plainly: Antiinflammatory activity in DBA/1 mouse model of collagen-induced arthritis assessed as CD8-positive cell expression in lymph node derived lymphocytes at 10 mg/kg/day, po administered starting from day 30 and measured on day 63 by APC-conjugated anti-mouse CD4 and FITC-conjugated anti-mouse CD8 staining based flow cytometry relative to control. The class given is functional. The settings on record: time 33 day.

In assay [10] the test system is Mus musculus. Put plainly: Antiinflammatory activity in DBA/1 mouse model of collagen-induced arthritis assessed as reduction in cartilage destruction at 10 mg/kg/day, po administered starting from day 30 and measured on day 63 by H and E/Safranin O staining based microscopic analysis. The class given is functional, organism-based. The settings on record: time 33.0 day.

Assay [11] has as its system Mus musculus. In words: Antiinflammatory activity in DBA/1 mouse model of collagen-induced arthritis assessed as appearance of intact joint structure at 10 mg/kg/day, po administered starting from day 30 and measured on day 63 by H and E/Safranin O staining based microscopic analysis. The class given is functional, organism-based. The settings on record: time 33.0 day.

In assay [12] the test system is Mus musculus. In words: Antiinflammatory activity in DBA/1 mouse model of collagen-induced arthritis assessed as CD4-positive cell expression in spleen lymphocytes at 10 mg/kg/day, po administered starting from day 30 and measured on day 63 by APC-conjugated anti-mouse CD4 and FITC-conjugated anti-mouse CD8 staining based flow cytometry relative to control. It is filed as functional. The following applies: time 33 day.

Assay [13] has as its system Rattus norvegicus. In words: Antiinflammatory activity in Lewis rat model of adjuvant-induced arthritis assessed as reduction in arthritis score at 10 mg/kg/day, po administered starting from day 14. It is filed as functional, organism-based.
Assay [14] relates to Mus musculus. Put plainly: Antiinflammatory activity in DBA/1 mouse model of collagen-induced arthritis assessed as CD4 and CD8-double positive cell expression in lymph node derived lymphocytes at 10 mg/kg/day, po administered starting from day 30 and measured on day 63 by APC-conjugated anti-mouse CD4 and FITC-conjugated anti-mouse CD8 staining based flow cytometry relative to control. The settings on record: time 33 day. It is filed as functional.

In assay [15] the test system is Mus musculus. Put plainly: Antiinflammatory activity in DBA/1 mouse model of collagen-induced arthritis assessed as reduction in IL-1beta mRNA expression in joint tissue at 10 mg/kg/day, po administered starting from day 30 and measured on day 63 by RT-PCR analysis. It is filed as functional, organism-based. The following applies: time 33.0 day.
Assay [16] concerns Mus musculus. In words: Antiinflammatory activity in DBA/1 mouse model of collagen-induced arthritis assessed as CD8-positive cell expression in spleen lymphocytes at 10 mg/kg/day, po administered starting from day 30 and measured on day 63 by APC-conjugated anti-mouse CD4 and FITC-conjugated anti-mouse CD8 staining based flow cytometry relative to control. The class given is functional. The following applies: time 33 day.

The subject of assay [17] is Mus musculus. Put plainly: Antiinflammatory activity in DBA/1 mouse model of collagen-induced arthritis assessed as reduction in arthritis score at 10 mg/kg/day, po administered starting from day 30. The class given is functional, organism-based.
For assay [18], the system named is RAW264.7. In words: Inhibition of LPS-induced nitric oxide production in mouse RAW264.7 cells measured after 24 hrs by Griess reagent based assay. It is filed as functional, cell-based. The settings on record: RAW264.7, 24 h.
Assay [19] relates to Mus musculus. In words: Antiinflammatory activity in DBA/1 mouse model of collagen-induced arthritis assessed as reduction in TNFalpha mRNA expression in joint tissue at 10 mg/kg/day, po administered starting from day 30 and measured on day 63 by RT-PCR analysis. It is filed as functional, organism-based. The settings on record: time 33.0 day.
Assay [20] relates to Rattus norvegicus. Put plainly: Antiinflammatory activity in Lewis rat model of adjuvant-induced arthritis assessed as reduction in disease symptom at 10 mg/kg/day, po administered starting from day 14. The class given is functional, organism-based.

As usually defined, the inhibition is how much of the control response was suppressed. As a reminder, the IC50 is the concentration at which inhibition is half-maximal. Regarding `COc1cc(O)c(C(=O)/C=C/c2ccc(OCCCN3CCOCC3)c(OC)c2)c(OC)c1`, the Activity in assay [1] is listed as 29.3%; in assay [2], 0.527%; in assay [9], 27.4%; in [12], 39.1%; in assay [14], 2.13%; in assay [16], 28.7%. Moreover, in [3], the inhibition result was “Dose-dependent effect”. For the same compound, the inhibition at 10 µM in assay [4] came to 84%. Moreover, the outcome in [5], in assay [6], in assay [7], in assay [10], in assay [11] and in assay [13] was Active. Also, the result in [15], in assay [17], in assay [19] and in assay [20] was Active. Also, the IC50 in assay [8] is greater than 80 µM; in assay [18] it was 6.4 µM.
